Laboratory results from patent publication US20080166807A1, “Autologous progenitor stem cells of gastrointestinal origin” (priority 2005, published 2008).
Several values for one entry are separate records, joined by “and”; a condition that tells them apart may be missing. Identical values can stand only once.

Test system: GIP-C cells
Test: Attachment factors study with subcultured GIP-C cells (cell counts in supernatant and of attached cells)
Type: cell-based
Settings: for Attaching of cells from 2-5 μm (comparison of attachment factors): cells 2-5 μm; for Cell counts in Supernatant, 2-5 μm / Cell counts of Attached cells, 2-5 μm / Cell counts of Attached cells, 5-8 μm / Cell counts in Supernatant, 5-8 μm: wells coated with attachment factor, RPMI 1640 media with supplements, two wells each
Procedure: Two of the six well plates were coated with the following attachment factors: Collagen type IV, Fibronectin, Superfibronectin, ECM gel and Laminin. Collagen type IV (2 mg/ml) was made by dissolving 0.75 mg of collagen in 375 μl of sterilized 0.25% acetic acid. Collagen type IV (187.5 μl) was used to coat two wells and Incubated overnight at 2-8° C. Fibronectin (250 μl of 10 μg/ml) was used to coat each well and air-dried at room temperature for 45 minutes. Superfibronectin (250 μl of 5 μg/ml) was used to coat each well and incubated at 37° C. for two hours. The wells were then washed twice with 100 μl of PBS, and left to air dry in a laminar flow hood. ECM gel was thawed overnight before use; 250 μl of ECM gel was mixed with 250 μl of cold DMEM medium before using 250 μl of the mixture to coat precooled wells. The ECM gel was then left for five minutes at 20° C. for the gel to polymerize. An aliquot of 200 μg/200 μl of laminin was thawed at 4° C. for 2-4 hrs before making a dilution using 36 μl of stock solution and diluting it with 464 μl of sterile PBS. Laminin (250 μl, 18 μg/well) was used to coat each well. The plates with laminin were then air-dried for 45 minutes. All of the plates containing the attachment factors were sterilized overnight by exposure to UV light in a sterile tissue culture hood.
RPMI 1640 media (250 ml) was obtained from Invitrogen (11875-085), to which the following supplements were added: 100 ng/ml of cholera-toxin (Sigma, C8052), 500 ng/ml of hydrocortisone (Sigma, H0888), 5% of heat inactivated horse serum (Gibco, 16050-130) and 25 ml of Mesenchymal supplement (Stemcell technologies, 05402). After the media was filter sterilized and aliquots of 26 ml were made, they were stored at 4° C.
RPMI 1640 media with all the supplements was warmed at 37° C. Two ml of the media was added to each well containing the attachment factors along with 3 control wells which contained no attachment factors. Cells previously subcultured in mesencult medium were pelleted and divided into 100,000 cells per well and incubated at 37° C. The cells were observed under a phase-contrast microscope. Once, every two days the top layer containing the unattached GIP-C cells was removed, washed and resuspended in freezing media. Two ml of RPMI 1640 media with the supplements was added to the wells and incubated at 37° C.
The gastrointestinal progenitor cells in culture were found mostly in suspension in the culture media. In order to test the adherence of these cells a study was conducted where they were plated on tissue culture wells coated with each of the five different epithelial cell attachment factors: collagen type IV, laminin, superfibronectin, fibronectin, and ECM gel. There were three control wells with no attachment factors in them.

| Substance | Attaching of cells from 2-5 μm (comparison of attachment factors) | Cell counts in Supernatant, 2-5 μm | Cell counts of Attached cells, 2-5 μm | Cell counts of Attached cells, 5-8 μm | Cell counts in Supernatant, 5-8 μm |
| --- | --- | --- | --- | --- | --- |
| Collagen type IV | seemed to be better at attaching cells | 1.22E+07 Cells/ml and 1.60E+07 Cells/ml | 2.25E+06 Cells/ml and 1.19E+06 Cells/ml | 57486 Cells/ml |  |
| Fibronectin |  |  | 68340 Cells/ml |  | 68340 Cells/ml and 63918 Cells/ml |
| Laminin |  | 4.09E+07 Cells/ml and 3.04E+07 Cells/ml | 974448 Cells/ml and 643602 Cells/ml | 40602 Cells/ml and 43416 Cells/ml | 90048 Cells/ml and 84822 Cells/ml |
| Superfibronectin | seemed to be better at attaching cells | 3.96E+07 Cells/ml and 5.06E+07 Cells/ml | 1.62E+06 Cells/ml and 1.35E+06 Cells/ml |  | 67536 Cells/ml and 54672 Cells/ml |
